Assay results from US6403794B2, “Substituted 2-amino-4-alkylamino-1,3,5-triazines as herbicides” (Bayer Aktiengesellschaft, priority 1996, dated 2002).

Assays:
Maize = assay: Pre-emergence test; assay type: in vivo; settings: greenhouse, 1000 g of ai./ha, after three weeks
Method: (§1) Solvent: 5 parts by weight of acetone
(§2) Emulsifier: 1 part by weight of alkylaryl polyglycol ether
(§3) To produce a suitable preparation of active compound, 1 part by weight of active compound is mixed with the stated amount of solvent, the stated amount of emulsifier is added and the concentrate is diluted with water to the desired concentration.
(§4) Seeds of the test plants are sown in normal soil. After about 24 hours, the soil is watered with the preparation of active compound. The amount of water per unit area is advantageously kept constant. The concentration of active compound in the preparation is immaterial, only the application rate of active compound per unit area matters.
(§5) After three weeks, the degree of damage to the plants is scored visually in % damage in comparison to the development of the untreated control.
(§6) 0%=no effect (like untreated control)

Amaranthus [1] = assay: Pre-emergence test; assay type: in vivo; settings: Amaranthus, 504 h, greenhouse, after three weeks, read-out: degree of damage to the plants (% damage), Amaranthus; for pest or weed control at 1000 g/ha: 1000 g of ai./ha; for pest or weed control at 500 g/ha: 500 g of ai./ha
Method: as §1, §2, §3, §4, §5, §6

Abutilon [2] = assay: Pre-emergence test; assay type: in vivo; settings: Abutilon, 504 h, greenhouse, after three weeks, read-out: degree of damage to the plants (% damage), Abutilon; for pest or weed control at 1000 g/ha: 1000 g of ai./ha; for pest or weed control at 500 g/ha: 500 g of ai./ha
Method: as §1, §2, §3, §4, §5, §6

Sinapis = assay: Pre-emergence test; assay type: in vivo; settings: greenhouse, 1000 g of ai./ha, after three weeks
Method: as §1, §2, §3, §4, §5, §6

weeds [3] = assay: Pre-emergence test; assay type: in vivo
Method: as §1, §2, §3, §4, §5, §6

Xanthium = assay: Post-emergence test; assay type: in vivo; settings: greenhouse, 1000 g of ai./ha, after three weeks
Method: as §1, §2, §3
(§7) Test plants which have a height of 5-15 cm are sprayed with the preparation of active compound such that the particular amounts of active compounds desired are applied per unit area. The concentration of the spray liquor is chosen so that the particular amounts of active compound desired are applied in 1000 l of water/ha.
(§8) After three weeks, the degree of damage to the plants is scored visually in % damage, in comparison to the untreated control.
as §6

Alopecurus [4] = assay: Post-emergence test; assay type: in vivo; settings: greenhouse, 1000 g of ai./ha, after three weeks
Method: as §1, §2, §3, §7, §8, §6

Setaria [5] = assay: Post-emergence test; assay type: in vivo; settings: greenhouse, after three weeks; for pest or weed control at 500 g/ha: 500 g of ai./ha
Method: as §1, §2, §3, §7, §8, §6

Amaranthus [6] = assay: Post-emergence test; assay type: in vivo; settings: greenhouse, after three weeks; for pest or weed control at 500 g/ha: 500 g of ai./ha
Method: as §1, §2, §3, §7, §8, §6

Abutilon [7] = assay: Post-emergence test; assay type: in vivo; settings: greenhouse, 1000 g of ai./ha, after three weeks
Method: as §1, §2, §3, §7, §8, §6

weeds [8] = assay: Post-emergence test; assay type: in vivo
Method: as §1, §2, §3, §7, §8, §6

Galium [9] = assay: Post-emergence test; assay type: in vivo; settings: greenhouse, 1000 g of ai./ha, after three weeks
Method: as §1, §2, §3, §7, §8, §6

Solanum = assay: Post-emergence test; assay type: in vivo; settings: greenhouse, 500 g of ai./ha, after three weeks
Method: as §1, §2, §3, §7, §8, §6

Wheat [10] = assay: Post-emergence test; assay type: in vivo; settings: greenhouse, 500 g of ai./ha, after three weeks
Method: as §1, §2, §3, §7, §8, §6

Echinochloa [11] = assay: Post-emergence test; assay type: in vivo; settings: greenhouse, 500 g of ai./ha, after three weeks
Method: as §1, §2, §3, §7, §8, §6

Ipomoea = assay: Post-emergence test; assay type: in vivo; settings: greenhouse, 500 g of ai./ha, after three weeks
Method: as §1, §2, §3, §7, §8, §6

Polygonum [12] = assay: Post-emergence test; assay type: in vivo; settings: greenhouse, 500 g of ai./ha, after three weeks
Method: as §1, §2, §3, §7, §8, §6

Wheat [13] = assay: Pre-emergence test; assay type: in vivo; settings: greenhouse, 500 g of ai./ha, after three weeks
Method: as §1, §2, §3, §4, §5, §6

Digitaria = assay: Pre-emergence test; assay type: in vivo; settings: greenhouse, 500 g of ai./ha, after three weeks
Method: as §1, §2, §3, §4, §5, §6

Datura = assay: Pre-emergence test; assay type: in vivo; settings: greenhouse, 500 g of ai./ha, after three weeks
Method: as §1, §2, §3, §4, §5, §6

Veronica = assay: Pre-emergence test; assay type: in vivo; settings: greenhouse, 500 g of ai./ha, after three weeks
Method: as §1, §2, §3, §4, §5, §6

Echinochloa [14] = assay: Pre-emergence test; assay type: in vivo; settings: greenhouse, 500 g of ai./ha, after three weeks
Method: as §1, §2, §3, §4, §5, §6

Polygonum [15] = assay: Pre-emergence test; assay type: in vivo; settings: greenhouse, 500 g of ai./ha, after three weeks
Method: as §1, §2, §3, §4, §5, §6

Alopecurus [16] = assay: Pre-emergence test; assay type: in vivo; settings: greenhouse, 1000 g of ai./ha, after three weeks
Method: as §1, §2, §3, §4, §5, §6

Setaria [17] = assay: Pre-emergence test; assay type: in vivo; settings: greenhouse, 1000 g of ai./ha, after three weeks
Method: as §1, §2, §3, §4, §5, §6

Galium [18] = assay: Pre-emergence test; assay type: in vivo; settings: greenhouse, 1000 g of ai./ha, after three weeks
Method: as §1, §2, §3, §4, §5, §6

[19] = Setaria, 504 h, read-out: degree of damage to the plants (% damage), Setaria
[20] = Amaranthus, 504 h, read-out: degree of damage to the plants (% damage), Amaranthus

SMILES | pest or weed control at 1000 g/ha (Amaranthus [1]) [%] | pest or weed control at 1000 g/ha (Abutilon [2]) [%] | activity against weeds (weeds [3]) | degree of damage to the plants (% damage), Xanthium (Xanthium) [%] | degree of damage to the plants (% damage), Alopecurus (Alopecurus [4]) [%] | degree of damage to the plants (% damage), Abutilon (Abutilon [7]) [%] | activity against weeds (weeds [8]) | degree of damage to the plants (% damage), Galium (Galium [9]) [%] | degree of damage to the plants (% damage), Solanum (Solanum) [%] | degree of damage to the plants (% damage), Wheat (Wheat [10]) [%] | pest or weed control at 500 g/ha (Setaria [5]; [19]) [%] | pest or weed control at 500 g/ha (Amaranthus [6]; [20]) [%] | degree of damage to the plants (% damage), Echinochloa (Echinochloa [11]) [%] | degree of damage to the plants (% damage), Ipomoea (Ipomoea) [%] | degree of damage to the plants (% damage), Polygonum (Polygonum [12]) [%] | degree of damage to the plants (% damage), Wheat (Wheat [13]) [%] | pest or weed control at 500 g/ha (Amaranthus [1]) [%] | degree of damage to the plants (% damage), Digitaria (Digitaria) [%] | pest or weed control at 500 g/ha (Abutilon [2]) [%] | degree of damage to the plants (% damage), Datura (Datura) [%] | other results
CCC(COc1ccccc1)Nc1nc(N)nc(C(F)(F)F)n1 (stereo not shown) [Example 2] | 100 | 80 | strong activity | 100 | 70 | 100 | strong activity | 100 |  |  |  |  |  |  |  |  |  |  |  |  | degree of damage to the plants (% damage), Maize (Maize): 20%; degree of damage to the plants (% damage), Sinapis (Sinapis): 100%; melting point: 100 °C; pest or weed control at 1000 g/ha (Setaria [5]; Setaria, 504 h, 1000 g of ai./ha, read-out: degree of damage to the plants (% damage), Setaria): 100%; pest or weed control at 1000 g/ha (Amaranthus [6]; Amaranthus, 504 h, 1000 g of ai./ha, read-out: degree of damage to the plants (% damage), Amaranthus): 100%
CCC(COc1ccccc1)Nc1nc(N)nc(C(F)(F)F)n1 (stereo not shown) [Example 4] |  |  |  | 100 | 70 | 100 | strong activity | 80 |  |  |  |  |  |  |  |  |  |  |  |  | degree of damage to the plants (% damage), Setaria (Setaria [5]; 1000 g of ai./ha): 100%; degree of damage to the plants (% damage), Amaranthus (Amaranthus [6]; 1000 g of ai./ha): 100%
CCC(CCc1cccs1)Nc1nc(N)nc(C(F)(F)F)n1 (stereo not shown) [Example 11] |  |  |  |  |  |  | strong activity |  | 100 | 10 | 95 | 100 | 80 | 100 | 100 |  |  |  |  |  | 
CCC(CCc1ccsc1)Nc1nc(N)nc(C(F)(F)F)n1 (stereo not shown) [Example 12] |  |  | strong activity |  |  |  | strong activity |  | 100 | 10 | 95 | 100 | 90 | 100 | 100 | 0 | 100 | 80 | 100 | 100 | degree of damage to the plants (% damage), Veronica (Veronica): 100%; degree of damage to the plants (% damage), Echinochloa (Echinochloa [14]): 100%; degree of damage to the plants (% damage), Polygonum (Polygonum [15]): 100%
CCC(CCc1ccsc1)Nc1nc(N)nc(C(C)F)n1 (stereo not shown) [Example 19] |  |  | strong activity |  |  |  | strong activity |  | 100 |  | 100 | 100 | 100 | 100 | 100 | 0 | 100 | 100 | 100 | 100 | degree of damage to the plants (% damage), Veronica (Veronica): 100%; degree of damage to the plants (% damage), Echinochloa (Echinochloa [14]): 100%; degree of damage to the plants (% damage), Polygonum (Polygonum [15]): 100%
CCC(CCc1ccccn1)Nc1nc(N)nc(C(C)F)n1 (stereo not shown) [Example 21] | 95 | 90 | strong activity |  |  |  |  |  |  |  |  |  |  |  |  |  |  |  |  |  | degree of damage to the plants (% damage), Alopecurus (Alopecurus [16]): 100%; degree of damage to the plants (% damage), Setaria (Setaria [17]): 90%; degree of damage to the plants (% damage), Galium (Galium [18]): 80%
